Reference: ChEMBL document CHEMBL5143638, “Natural aloe emodin-hybridized sulfonamide aminophosphates as novel potential membrane-perturbing and DNA-intercalating agents against Enterococcus faecalis” (Bioorg Med Chem Lett, 2022)
In brackets after ≈: the same amount, converted by molar mass. Activity calls are given as the source filed them. The rule behind the calls is not given here.

Assays:
Escherichia coli [1] = assay: Antibacterial activity against Escherichia coli assessed as inhibition of bacterial growth measured after 24 hrs by CLSI based broth microdilution method; type: functional
Escherichia coli [2] = assay: Antibacterial activity against Escherichia coli ATCC 25922 assessed as inhibition of bacterial growth measured after 24 hrs by CLSI based broth microdilution method; type: functional
Staphylococcus aureus [3] = assay: Antibacterial activity against Staphylococcus aureus ATCC 25923 assessed as inhibition of bacterial growth measured after 24 hrs by CLSI based broth microdilution method; type: functional
Enterococcus faecalis [4] = assay: Antibacterial activity against Enterococcus faecalis assessed as inhibition of bacterial growth measured after 24 hrs by CLSI based broth microdilution method; type: functional
Acinetobacter baumannii = assay: Antibacterial activity against Acinetobacter baumannii assessed as inhibition of bacterial growth measured after 24 hrs by CLSI based broth microdilution method; type: functional
Klebsiella pneumoniae = assay: Antibacterial activity against Klebsiella pneumoniae assessed as inhibition of bacterial growth measured after 24 hrs by CLSI based broth microdilution method; type: functional
Staphylococcus aureus [5] = assay: Antibacterial activity against Staphylococcus aureus assessed as inhibition of bacterial growth measured after 24 hrs by CLSI based broth microdilution method; type: functional
Pseudomonas aeruginosa [6] = assay: Antibacterial activity against Pseudomonas aeruginosa ATCC 27853 assessed as inhibition of bacterial growth measured after 24 hrs by CLSI based broth microdilution method; type: functional
Staphylococcus aureus [7] = assay: Potency index, ratio of sulfisoxazole MIC to test compound MIC for antibacterial activity against Staphylococcus aureus assessed as inhibition of bacterial growth measured after 24 hrs by CLSI based broth microdilution method; type: functional
Staphylococcus aureus [8] = assay: Potency index, ratio of norfloxacin MIC to test compound MIC for antibacterial activity against Staphylococcus aureus assessed as inhibition of bacterial growth measured after 24 hrs by CLSI based broth microdilution method; type: functional
Pseudomonas aeruginosa [9] = assay: Antibacterial activity against Pseudomonas aeruginosa assessed as inhibition of bacterial growth measured after 24 hrs by CLSI based broth microdilution method; type: functional
Staphylococcus aureus [10] = assay: Antibacterial activity against methicillin-resistant Staphylococcus aureus N315 assessed as inhibition of bacterial growth measured after 24 hrs by CLSI based broth microdilution method; type: functional
Staphylococcus aureus [11] = assay: Potency index, ratio of norfloxacin MIC to test compound MIC for antibacterial activity against methicillin-resistant Staphylococcus aureus N315 assessed as inhibition of bacterial growth measured after 24 hrs by CLSI based broth microdilution method; type: functional
Cell membrane [12] = assay: Disruption of membrane integrity in Enterococcus faecalis assessed as membrane damage by measuring PI fluorescence at 1 to 8 times MIC incubated for 8 hrs by PI staining based analysis; type: subcellular
Cell membrane [13] = assay: Disruption of membrane integrity in Enterococcus faecalis assessed as membrane damage by measuring increase in red fluorescence at 2 to 8 times MIC incubated for 8 hrs by PI staining based fluorescence microscopic analysis; type: subcellular
Enterococcus faecalis [14] = assay: Antibiofilm activity against Enterococcus faecalis assessed as reduction in biofilm formation at upto 8 times MIC measured after 24 hrs by crystal violet staining based analysis relative to control; type: functional; set-up: scale not given: the % may be the effect or the level left
Erythrocyte [15] = assay: Hemolytic activity in human RBC at 512 ug/ml incubated for 2 hrs by microplate reader analysis; type: toxicity, cell-based; settings: dose 512 µg/ml
Cell membrane [16] = assay: Induction of membrane depolarization in Enterococcus faecalis assessed as increase in fluorescence intensity at 1 times MIC measured after 10 to 60 mins by diSC35 dye based fluorescence assay; type: subcellular; settings: time 10-60 min, TDE = time-dependent effect
Cell membrane [17] = assay: Disruption of membrane integrity in Escherichia coli ATCC 25922 assessed as membrane damage by measuring PI fluorescence at 1 to 8 times MIC incubated for 8 hrs by PI staining based analysis; type: subcellular
Enterococcus faecalis [18] = assay: Antibiofilm activity against Enterococcus faecalis assessed as reduction in biofilm formation at MIC measured after 24 hrs by crystal violet staining based analysis relative to control; type: functional; set-up: scale not given: the % may be the effect or the level left
Calf thymus DNA [19] = assay: Binding affinity to calf thymus DNA assessed as DNA intercalation by neutral red dye uptake method; type: nucleic-acid assay; settings: Bos taurus
Enterococcus faecalis [20] = assay: Induction of intracellular ROS production in Enterococcus faecalis assessed as fold increase in intracellular ROS level at 0.25 ug/ml incubated for 6 hrs by DCFH-DA assay relative to control; type: functional; settings: dose 0.25 µg/ml
Erythrocyte [21] = assay: Hemolytic activity in human RBC assessed as morphological changes at 512 ug/ml incubated for 2 hrs by microscopic analysis; type: toxicity, cell-based; settings: dose 512 µg/ml
Cell membrane [22] = assay: Disruption of membrane integrity in Enterococcus faecalis assessed as membrane damage by measuring PI-DNA complex formation at 2 times MIC incubated for 20 to 200 mins by PI staining based analysis; settings: time 20-200 min, TDE = time-dependent effect
Cell membrane [23] = assay: Induction of membrane damage in Enterococcus faecalis assessed as increase in protein leakage measured after 6 hrs by Bradford assay; type: subcellular; settings: DDE = dose-dependent effect
Enterococcus faecalis [24] = assay: Bactericidal activity against Enterococcus faecalis assessed as reduction in colony forming units at 4 times MIC measured after 1.5 to 6 hrs by time-kill kinetics assay; type: functional; settings: time 1.5-6 hrs
Enterococcus faecalis [25] = assay: Induction of intracellular ROS production in Enterococcus faecalis assessed as fold increase in intracellular ROS level at 2 ug/ml incubated for 6 hrs by DCFH-DA assay relative to control; type: functional; settings: dose 2 µg/ml
Calf thymus DNA [26] = assay: Binding affinity to calf thymus DNA assessed as compound-DNA complex formation by measuring hypochromic shift by UV-visible absorption spectrophotometric method; type: nucleic-acid assay; settings: Bos taurus

CCCCOP(=O)(OCCCC)C(Nc1ccc(S(=O)(=O)Nc2onc(C)c2C)cc1)c1cc(O)c2c(c1)C(=O)c1cccc(O)c1C2=O (stereo not drawn) was tested, and the MIC (Escherichia coli [1]) was 256 µg/mL (≈ 360 µM), the MIC (Escherichia coli [2]) was 8 µg/mL (≈ 11.2 µM) and the MIC (Staphylococcus aureus [3]) was 2 µg/mL (≈ 2.81 µM). It also gave an MIC (Enterococcus faecalis [4]) of 128 µg/mL (≈ 180 µM), an MIC (Acinetobacter baumannii) of 8 µg/mL (≈ 11.2 µM) and an MIC (Klebsiella pneumoniae) of 16 µg/mL (≈ 22.5 µM). It also gave an MIC (Staphylococcus aureus [5]) of 4 µg/mL (≈ 5.62 µM), an MIC (Pseudomonas aeruginosa [6]) of 256 µg/mL (≈ 360 µM) and a Ratio (Staphylococcus aureus [7]) of 4. For the same molecule, the Ratio (Staphylococcus aureus [8]) was 2, the MIC (Pseudomonas aeruginosa [9]) was 8 µg/mL (≈ 11.2 µM) and the MIC (Staphylococcus aureus [10]) was 64 µg/mL (≈ 89.9 µM).
With CCOP(=O)(OCC)C(Nc1ccc(S(=O)(=O)Nc2ccccn2)cc1)c1cc(O)c2c(c1)C(=O)c1cccc(O)c1C2=O (stereo not drawn) the MIC (Escherichia coli [1]) was 256 µg/mL (≈ 402 µM), the MIC (Escherichia coli [2]) was 256 µg/mL (≈ 402 µM) and the MIC (Staphylococcus aureus [3]) was 128 µg/mL (≈ 201 µM). The MIC (Enterococcus faecalis [4]) was 64 µg/mL (≈ 100 µM), the MIC (Acinetobacter baumannii) was 128 µg/mL (≈ 201 µM) and the MIC (Klebsiella pneumoniae) was 256 µg/mL (≈ 402 µM). The MIC (Staphylococcus aureus [5]) was 64 µg/mL (≈ 100 µM), the MIC (Pseudomonas aeruginosa [6]) was 64 µg/mL (≈ 100 µM) and the MIC (Pseudomonas aeruginosa [9]) was 256 µg/mL (≈ 402 µM). The Ratio (Staphylococcus aureus [11]) was 4 and the MIC (Staphylococcus aureus [10]) was 2 µg/mL (≈ 3.14 µM).
In the case of CCOP(=O)(OCC)C(Nc1ccc(S(=O)(=O)Nc2ncccn2)cc1)c1cc(O)c2c(c1)C(=O)c1cccc(O)c1C2=O (stereo not drawn), the MIC (Escherichia coli [1]) is reported as 2 µg/mL (≈ 3.13 µM), the MIC (Escherichia coli [2]) is reported as 0.25 µg/mL (≈ 0.391 µM) and the Activity (Cell membrane [12]) is reported as “Active”. For the same molecule, the Activity (Cell membrane [13]) was “Active”, the Activity (Enterococcus faecalis [14]) was “<=79%” and the Activity (Erythrocyte [15]) was “Non-Toxic”. The Activity (Cell membrane [16]) was “Tde”, the Activity (Cell membrane [17]) was “Active” and the Activity (Enterococcus faecalis [18]) was 30%. The Activity (Calf thymus DNA [19]) was “Active”, the MIC (Staphylococcus aureus [3]) was 2 µg/mL (≈ 3.13 µM) and the MIC (Enterococcus faecalis [4]) was 0.25 µg/mL (≈ 0.391 µM). The MIC (Acinetobacter baumannii) was 16 µg/mL (≈ 25.1 µM), the MIC (Klebsiella pneumoniae) was 0.5 µg/mL (≈ 0.783 µM) and the MIC (Staphylococcus aureus [5]) was 128 µg/mL (≈ 200 µM). For the same molecule, the MIC (Pseudomonas aeruginosa [6]) was 0.25 µg/mL (≈ 0.391 µM), the “fold change (FC)” value (Enterococcus faecalis [20]) was 1.2 and the Activity (Erythrocyte [21]) was “Non-Toxic”. For the same molecule, the Activity (Cell membrane [22]) was “Tde”, the MIC (Pseudomonas aeruginosa [9]) was 8 µg/mL (≈ 12.5 µM) and the Activity (Cell membrane [23]) was “Dde”. The Activity (Enterococcus faecalis [24]) was 3 log10CFU/ml, the “fold change (FC)” value (Enterococcus faecalis [25]) was 2.4 and the Activity (Calf thymus DNA [26]) was “Active”. It also gave an MIC (Staphylococcus aureus [10]) of 8 µg/mL (≈ 12.5 µM).
